“And” between values parts separate entries of the source, which are not always exact repeats. Equal entries are not always repeated. Toxic doses and inconclusive results are not listed.
System: CD2F1 mice, L1210 leukemia ip, survival T/C
Experiment: NCI In Vivo Anticancer Drug Screen. Data for tumor model L1210 Leukemia (intraperitoneal) in CD2F1 (CDF1) mice
Settings: higher = longer survival
Procedure, shortened: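 Mice carrying a transplanted tumor received test compound or vehicle alone. The value is the measurement in the treated group divided by that in the vehicle-treated control group.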

[1] = endpoint: mean survival time, dose: 12.5 mg/kg/injection, schedule: Q01DX009 (ip), vehicle: saline with Tween-80
[2] = endpoint: mean survival time, dose: 25.0 mg/kg/injection, schedule: Q01DX009 (ip), vehicle: saline with Tween-80
[3] = endpoint: mean survival time, dose: 37.5 mg/kg/injection, schedule: Q01DX009 (ip), vehicle: saline
[4] = endpoint: mean survival time, dose: 75.0 mg/kg/injection, schedule: Q01DX009 (ip), vehicle: saline
[5] = endpoint: mean survival time, dose: 150.0 mg/kg/injection, schedule: Q01DX009 (ip), vehicle: saline
[6] = endpoint: mean survival time, dose: 100.0 mg/kg/injection, schedule: Q01DX001 (ip), vehicle: saline
[7] = endpoint: mean survival time, dose: 200.0 mg/kg/injection, schedule: Q01DX001 (ip), vehicle: saline
[8] = endpoint: mean survival time, dose: 400.0 mg/kg/injection, schedule: Q01DX001 (ip), vehicle: saline
[9] = endpoint: mean survival time, dose: 100.0 mg/kg/injection, schedule: Q04DX003 (ip), vehicle: saline with Tween-80
[10] = endpoint: mean survival time, dose: 200.0 mg/kg/injection, schedule: Q04DX003 (ip), vehicle: saline with Tween-80
[11] = endpoint: mean survival time, dose: 400.0 mg/kg/injection, schedule: Q04DX003 (ip), vehicle: saline with Tween-80
[12] = endpoint: mean survival time, dose: 200.0 mg/kg/injection, schedule: Q04DX003 (ip), vehicle: saline
[13] = endpoint: mean survival time, dose: 100.0 mg/kg/injection, schedule: Q01DX009 (ip), vehicle: saline
[14] = endpoint: mean survival time, dose: 200.0 mg/kg/injection, schedule: Q01DX009 (ip), vehicle: saline
[15] = endpoint: mean survival time, dose: 50.0 mg/kg/injection, schedule: Q01DX009 (ip), vehicle: saline with Tween-80
[16] = endpoint: mean survival time, dose: 100.0 mg/kg/injection, schedule: Q01DX009 (ip), vehicle: saline with Tween-80
[17] = endpoint: mean survival time, dose: 200.0 mg/kg/injection, schedule: Q01DX009 (ip), vehicle: saline with Tween-80

CCOC(=O)Nc1cc(NCCCCc2ccccc2)c2[nH]cnc2n1
T/C (endpoint: mean survival time, dose: 100.0 mg/kg/injection, schedule: Q01DX001 (ip), vehicle: Klucel (hydroxypropylcellulose) (HPC)): 95 % of control
T/C (endpoint: mean survival time, dose: 200.0 mg/kg/injection, schedule: Q01DX001 (ip), vehicle: Klucel (hydroxypropylcellulose) (HPC)): 93 % of control
T/C (endpoint: mean survival time, dose: 400.0 mg/kg/injection, schedule: Q01DX001 (ip), vehicle: Klucel (hydroxypropylcellulose) (HPC)): 102 % of control

C[C@@](O)(/C=C/[C@H]1CC=CC(=O)O1)[C@@H](C[C@@H](O)\C=C/C=C\C=C\CO)OP(=O)(O)O
T/C (endpoint: median survival time, dose: 0.4 mg/kg/injection, schedule: Q01DX005 (iv), vehicle: other): 109 % of control
T/C (endpoint: median survival time, dose: 0.78 mg/kg/injection, schedule: Q01DX005 (iv), vehicle: other): 109 % of control
T/C (endpoint: median survival time, dose: 1.56 mg/kg/injection, schedule: Q01DX005 (iv), vehicle: other): 112 % of control
T/C (endpoint: median survival time, dose: 1.56 mg/kg/injection, schedule: Q01DX005 (iv), vehicle: saline): 121 % of control
T/C (endpoint: median survival time, dose: 1.56 mg/kg/injection, schedule: Q01DX009 (ip), vehicle: other): 243 % of control
T/C (endpoint: median survival time, dose: 1.56 mg/kg/injection, schedule: Q01DX009 (ip), vehicle: saline): 216 % of control
T/C (endpoint: median survival time, dose: 3.12 mg/kg/injection, schedule: Q01DX009 (ip), vehicle: other): 170 % of control and 191 % of control
T/C (endpoint: median survival time, dose: 3.12 mg/kg/injection, schedule: Q01DX009 (ip), vehicle: saline): 204 % of control
T/C (endpoint: median survival time, dose: 3.13 mg/kg/injection, schedule: Q01DX005 (iv), vehicle: other): 123 % of control
T/C (endpoint: median survival time, dose: 3.13 mg/kg/injection, schedule: Q01DX009 (ip), vehicle: other): 235 % of control
T/C (endpoint: median survival time, dose: 6.25 mg/kg/injection, schedule: Q01DX005 (iv), vehicle: other): 162 % of control
T/C (endpoint: median survival time, dose: 6.25 mg/kg/injection, schedule: Q01DX009 (ip), vehicle: other): 194 % of control and 207 % of control and 512 % of control
T/C (endpoint: median survival time, dose: 6.25 mg/kg/injection, schedule: Q01DX009 (ip), vehicle: saline): 216 % of control
T/C (endpoint: median survival time, dose: 12.5 mg/kg/injection, schedule: Q01DX005 (iv), vehicle: other): 197 % of control
T/C (endpoint: median survival time, dose: 12.5 mg/kg/injection, schedule: Q01DX005 (iv), vehicle: saline): 178 % of control
T/C (endpoint: median survival time, dose: 12.5 mg/kg/injection, schedule: Q01DX009 (ip), vehicle: other): 117 % of control and 337 % of control
T/C (endpoint: median survival time, dose: 12.5 mg/kg/injection, schedule: Q01DX009 (ip), vehicle: saline): 722 % of control
T/C (endpoint: median survival time, dose: 25.0 mg/kg/injection, schedule: Q01DX005 (iv), vehicle: other): 259 % of control
T/C (endpoint: median survival time, dose: 25.0 mg/kg/injection, schedule: Q01DX005 (iv), vehicle: saline): 201 % of control
T/C (endpoint: median survival time, dose: 25.0 mg/kg/injection, schedule: Q01DX009 (ip), vehicle: other): 273 % of control
T/C (endpoint: median survival time, dose: 50.0 mg/kg/injection, schedule: Q01DX005 (iv), vehicle: saline): 240 % of control

Nc1[nH]c(=O)ncc1C(=O)NC(CO)C(=O)O (centres undefined)
T/C (endpoint: mean survival time, dose: 6.25 mg/kg/injection, schedule: Q01DX009 (ip), vehicle: saline with Tween-80): 100 % of control
T/C [1]: 102 % of control
T/C [2]: 104 % of control

C/C(=N\Nc1nc2ccccc2s1)c1ccc2c(c1)Sc1ccccc1O2
T/C [3]: 92 % of control
T/C [4]: 95 % of control
T/C [5]: 98 % of control

O=C(Cc1ccc([N+](=O)[O-])cc1)Nc1ccc(S(=O)(=O)F)cc1
T/C [6]: 96 % of control
T/C [7]: 103 % of control
T/C [8]: 100 % of control

N#CCCc1c(O)ccc2ccccc12
T/C [9]: 86 % of control
T/C [10]: 92 % of control
T/C [11]: 86 % of control

N#CNC=Nc1ccccc1
T/C (endpoint: mean survival time, dose: 100.0 mg/kg/injection, schedule: Q04DX003 (ip), vehicle: saline): 95 % of control
T/C [12]: 95 % of control
T/C (endpoint: mean survival time, dose: 400.0 mg/kg/injection, schedule: Q04DX003 (ip), vehicle: saline): 100 % of control

CCOC(=O)C1CC2(CC(C(N)=O)C2)C1 (centres undefined)
T/C [6]: 103 % of control
T/C [7]: 100 % of control
T/C [8]: 93 % of control

BrC/C(=N\N1CCCCCC1)c1ccc(Br)cc1
T/C [6]: 94 % of control
T/C [7]: 92 % of control
T/C [8]: 92 % of control

CN(CCCOS(C)(=O)=O)CCCOS(C)(=O)=O
T/C (endpoint: mean survival time, dose: 6.3 mg/kg/injection, schedule: Q01DX009 (ip), vehicle: saline): 123 % of control
T/C (endpoint: mean survival time, dose: 6.3 mg/kg/injection, schedule: Q04DX003 (ip), vehicle: saline): 117 % of control and 119 % of control and 109 % of control
T/C (endpoint: mean survival time, dose: 8.4 mg/kg/injection, schedule: Q01DX009 (oral), vehicle: saline): 104 % of control
T/C (endpoint: mean survival time, dose: 12.5 mg/kg/injection, schedule: Q01DX001 (ip), vehicle: saline): 108 % of control
T/C (endpoint: mean survival time, dose: 39.0 mg/kg/injection, schedule: Q01DX009 (oral), vehicle: saline): 121 % of control
T/C (endpoint: mean survival time, dose: 65.0 mg/kg/injection, schedule: Q01DX001 (oral), vehicle: saline): 104 % of control
T/C [13]: 87 % of control and 105 % of control and 93 % of control
T/C (endpoint: mean survival time, dose: 108.0 mg/kg/injection, schedule: Q01DX001 (oral), vehicle: saline): 102 % of control
T/C [7]: 118 % of control
T/C [12]: 87 % of control and 88 % of control
T/C (endpoint: mean survival time, dose: 300.0 mg/kg/injection, schedule: Q01DX001 (oral), vehicle: saline): 114 % of control

Cc1cc(=S)[nH]c2ccccc12
T/C [3]: 91 % of control
T/C [4]: 91 % of control
T/C [5]: 96 % of control

CNCCc1ccc(O)c(O)c1
T/C (endpoint: mean survival time, dose: 300.0 mg/kg/injection, schedule: Q01DX001 (ip), vehicle: saline): 100 % of control

C/C=C(/c1ccccc1)c1ccc(N(C)C)cc1
T/C [9]: 98 % of control
T/C [10]: 91 % of control
T/C [11]: 91 % of control

COc1ccc(S(=O)(=O)F)cc1NC(=O)c1ccc2ccccc2c1O
T/C [13]: 112 % of control
T/C [14]: 108 % of control
T/C (endpoint: mean survival time, dose: 400.0 mg/kg/injection, schedule: Q01DX009 (ip), vehicle: saline): 113 % of control

CNC(=O)c1cccc2ccccc12
T/C (endpoint: mean survival time, dose: 50.0 mg/kg/injection, schedule: Q01DX001 (ip), vehicle: saline): 103 % of control
T/C [6]: 100 % of control
T/C [7]: 97 % of control
T/C [8]: 95 % of control

O=C(O)CCC(=O)c1ccccc1
T/C [15]: 101 % of control
T/C [16]: 106 % of control
T/C [17]: 106 % of control

CCCCOC(=S)SCCSC(=S)OCCCC
T/C [16]: 101 % of control
T/C [17]: 98 % of control

CO[Si](c1ccccc1)(c1ccccc1)c1ccc(Br)cc1
T/C [9]: 96 % of control
T/C [10]: 98 % of control
T/C [11]: 102 % of control

CCOC(=O)C1CN(Cc2ccccc2)CCC1=O (centres undefined)
T/C [13]: 100 % of control
T/C [14]: 103 % of control

O=C(OCc1ccccc1)c1ccccc1
T/C (endpoint: mean survival time, dose: 100.0 mg/kg/injection, schedule: Q04DX002 (ip), vehicle: Klucel (hydroxypropylcellulose) (HPC)): 90 % of control
T/C (endpoint: mean survival time, dose: 200.0 mg/kg/injection, schedule: Q04DX002 (ip), vehicle: Klucel (hydroxypropylcellulose) (HPC)): 100 % of control
T/C (endpoint: mean survival time, dose: 400.0 mg/kg/injection, schedule: Q04DX002 (ip), vehicle: Klucel (hydroxypropylcellulose) (HPC)): 90 % of control

CCCCCCCCCCCCCCCCNC(=O)C[N+](C)(C)Cc1ccccc1
T/C (endpoint: mean survival time, dose: 5.0 mg/kg/injection, schedule: Q04DX003 (ip), vehicle: saline with Tween-80): 100 % of control
T/C (endpoint: mean survival time, dose: 10.0 mg/kg/injection, schedule: Q04DX003 (ip), vehicle: saline with Tween-80): 101 % of control

COc1ccc(/C=C/c2cc[n+](C)cc2)cc1
T/C (endpoint: mean survival time, dose: 12.5 mg/kg/injection, schedule: Q01DX009 (ip), vehicle: saline): 102 % of control
T/C (endpoint: mean survival time, dose: 25.0 mg/kg/injection, schedule: Q01DX009 (ip), vehicle: saline): 95 % of control

c1ccc(-c2cc3ccccc3c(-c3ccccc3)c2-c2ccccc2)cc1
T/C (endpoint: mean survival time, dose: 150.0 mg/kg/injection, schedule: Q01DX001 (ip), vehicle: other): 90 % of control
T/C (endpoint: mean survival time, dose: 300.0 mg/kg/injection, schedule: Q01DX001 (ip), vehicle: other): 88 % of control

O=C(CBr)CC(=O)Nc1ccccc1
T/C (endpoint: mean survival time, dose: 50.0 mg/kg/injection, schedule: Q04DX003 (ip), vehicle: saline with Tween-80): 101 % of control
T/C [9]: 88 % of control

O=S(=O)(Cl)OC1C2COC(O2)C(OS(=O)(=O)Cl)C1OS(=O)(=O)Cl (centres undefined)
T/C [1]: 108 % of control
T/C [2]: 103 % of control
T/C [15]: 102 % of control

Reference: PubChem BioAssay AID256 (DTP/NCI, 2004)
